# Read-outs that look alike come from different tables or passages of the source.
# Assays:
# [1] = target: IMPDH human type II (Homo sapiens, UniProt P12268); assay: biochemical
# [2] = tested on: human PBMC B cells; assay: cells; type: cell-based; details: read-out: B-cells (IC50)
# [3] = tested on: human PBMC T cells; assay: cells; type: cell-based; details: read-out: T-cells (IC50)
smiles,measurement,setting,value
COc1cc(NC(=O)Nc2cccc(CNC(=O)O[C@@H](C)CN(C)Cc3ccco3)c2)ccc1-c1cnco1 [Compound 30],Ki,[1]; read-out: Ki,< 10 nM
same,IC50,"[2]; Homo sapiens, 72 h",100 to 1000 nM
same,IC50,"[3]; Homo sapiens, 72 h",> 1000 nM
CCCC(CC#N)OC(=O)NCc1cccc(NC(=O)Nc2ccc(-c3cnco3)c(OC)c2)c1 (stereo not drawn) [Compound 32],Ki,[1]; read-out: Ki,< 10 nM
same,IC50,"[2]; Homo sapiens, 72 h",< 100 nM
same,IC50,"[3]; Homo sapiens, 72 h",100 to 1000 nM
CCCCC(CC#N)OC(=O)NCc1cccc(NC(=O)Nc2ccc(-c3cnco3)c(OC)c2)c1 (stereo not drawn) [Compound 33],Ki,[1]; read-out: Ki,< 10 nM
same,IC50,"[2]; Homo sapiens, 72 h",100 to 1000 nM
same,IC50,"[3]; Homo sapiens, 72 h",100 to 1000 nM
CNCCC(OC(=O)NCc1cccc(NC(=O)Nc2ccc(-c3cnco3)c(OC)c2)c1)c1ccccc1 (stereo not drawn) [Compound 34],Ki,[1]; read-out: Ki,< 10 nM
same,IC50,"[2]; Homo sapiens, 72 h",100 to 1000 nM
same,IC50,"[3]; Homo sapiens, 72 h",> 1000 nM
COc1cc(NC(=O)Nc2cccc(CNC(=O)OC(CCN(C)C)c3ccccc3)c2)ccc1-c1cnco1 (stereo not drawn) [Compound 35],Ki,[1]; read-out: Ki,< 10 nM
same,IC50,"[2]; Homo sapiens, 72 h",100 to 1000 nM
same,IC50,"[3]; Homo sapiens, 72 h",100 to 1000 nM
COc1cc(NC(=O)Nc2cccc(CNC(=O)OC(CC[N+](C)(C)C)c3ccccc3)c2)ccc1-c1cnco1 (stereo not drawn) [Compound 36],Ki,[1],< 10 nM
same,IC50,"[2]; Homo sapiens, 72 h",> 1000 nM
same,IC50,"[3]; Homo sapiens, 72 h",> 1000 nM
CCN(CC)CCC(OC(=O)NCc1cccc(NC(=O)Nc2ccc(-c3cnco3)c(OC)c2)c1)C(F)(F)F (stereo not drawn) [Compound 37],Ki,[1]; read-out: Ki,< 10 nM
same,IC50,"[2]; Homo sapiens, 72 h",100 to 1000 nM
same,IC50,"[3]; Homo sapiens, 72 h",100 to 1000 nM
CCCC(COC)OC(=O)NCc1cccc(NC(=O)Nc2ccc(-c3cnco3)c(OC)c2)c1 (stereo not drawn) [Compound 38],Ki,[1]; read-out: Ki,< 10 nM
same,IC50,"[2]; Homo sapiens, 72 h",100 to 1000 nM
same,IC50,"[3]; Homo sapiens, 72 h",100 to 1000 nM
COc1cc(NC(=O)Nc2cccc(CNC(=O)O[C@H](CCN(C)C)c3ccccc3)c2)ccc1-c1cnco1 [Compound 39],Ki,[1]; read-out: Ki,< 10 nM
same,IC50,[2],100 to 1000 nM
same,IC50,[3],100 to 1000 nM
COc1cc(NC(=O)Nc2cccc(CNC(=O)OC(CC#N)C(C)C)c2)ccc1-c1cnco1 (stereo not drawn) [Compound 40],Ki,[1]; read-out: Ki,< 10 nM
same,IC50,"[2]; Homo sapiens, 72 h",100 to 1000 nM
same,IC50,"[3]; Homo sapiens, 72 h",> 1000 nM
COCC(C)OC(=O)NCc1cccc(NC(=O)Nc2ccc(-c3cnco3)c(OC)c2)c1 (stereo not drawn) [Compound 41],Ki,[1]; read-out: Ki,< 10 nM
same,IC50,"[2]; Homo sapiens, 72 h",100 to 1000 nM
same,IC50,"[3]; Homo sapiens, 72 h",100 to 1000 nM
CCC(COC)OC(=O)NCc1cccc(NC(=O)Nc2ccc(-c3cnco3)c(OC)c2)c1 (stereo not drawn) [Compound 42],Ki,[1]; read-out: Ki,< 10 nM
same,IC50,"[2]; Homo sapiens, 72 h",100 to 1000 nM
same,IC50,"[3]; Homo sapiens, 72 h",100 to 1000 nM
CCC(CCO)OC(=O)NCc1cccc(NC(=O)Nc2ccc(-c3cnco3)c(OC)c2)c1 (stereo not drawn) [Compound 43],Ki,[1]; read-out: Ki,< 10 nM
same,IC50,"[2]; Homo sapiens, 72 h",100 to 1000 nM
same,IC50,"[3]; Homo sapiens, 72 h",100 to 1000 nM
CCC(CCCO)OC(=O)NCc1cccc(NC(=O)Nc2ccc(-c3cnco3)c(OC)c2)c1 (stereo not drawn) [Compound 44],Ki,[1]; read-out: Ki,< 10 nM
same,IC50,"[2]; Homo sapiens, 72 h",100 to 1000 nM
same,IC50,"[3]; Homo sapiens, 72 h",100 to 1000 nM
COc1cc(NC(=O)Nc2cccc(CNC(=O)OC(CCO)CCC#N)c2)ccc1-c1cnco1 (stereo not drawn) [Compound 45],Ki,[1]; read-out: Ki,< 10 nM
same,IC50,"[2]; Homo sapiens, 72 h",100 to 1000 nM
same,IC50,"[3]; Homo sapiens, 72 h",100 to 1000 nM
COc1cc(NC(=O)Nc2cccc(CNC(=O)OC(CC#N)C(C)(C)C)c2)ccc1-c1cnco1 (stereo not drawn) [Compound 46],Ki,[1]; read-out: Ki,< 10 nM
same,IC50,"[2]; Homo sapiens, 72 h",100 to 1000 nM
same,IC50,"[3]; Homo sapiens, 72 h",100 to 1000 nM
COc1cc(NC(=O)Nc2cccc(CNC(=O)O[C@H](C)CCC#N)c2)ccc1-c1cnco1 [Compound 47],Ki,[1]; read-out: Ki,< 10 nM
same,IC50,"[2]; Homo sapiens, 72 h",100 to 1000 nM
same,IC50,"[3]; Homo sapiens, 72 h",100 to 1000 nM
COc1cc(NC(=O)Nc2cccc(CNC(=O)OC(CCN3CCOCC3)c3ccccc3)c2)ccc1-c1cnco1 (stereo not drawn) [Compound 48],Ki,[1]; read-out: Ki,< 10 nM
same,IC50,"[2]; Homo sapiens, 72 h",100 to 1000 nM
same,IC50,"[3]; Homo sapiens, 72 h",100 to 1000 nM
CCC(CCCCO)OC(=O)NCc1cccc(NC(=O)Nc2ccc(-c3cnco3)c(OC)c2)c1 (stereo not drawn) [Compound 49],Ki,[1]; read-out: Ki,< 10 nM
same,IC50,"[2]; Homo sapiens, 72 h",100 to 1000 nM
same,IC50,"[3]; Homo sapiens, 72 h",100 to 1000 nM

# From patent US7087642B2 (priority 1999, dated 2006)
